Experimental data taken from patent publication US10556907B2 (AbbVie Inc., priority 2015, dated 2020).

Tests used:
Assay in all cases: Method 1: intracellular Ca2+ release (FLIPR, Calcium 5) in recombinant CHO-K1 cells
Type in all cases: cell-based
human S1PR1 receptor = biological target: T1, human S1PR1 receptor (Homo sapiens, UniProt P21453); conditions: (1): determined with method 1; read-out: S1P1 EC50
T1 construct: host or cells: CHO-K1
Method: (§1) Agonistic activity was measured using two different methods, described below.
(§2) Method 1. Intracellular Ca^2+ Release
(§3) Agonist potency and intrinsic activity was assessed by measurement of intracellular Ca^2+ release. Recombinant CHO-K1 cells (Euroscreen, Brussels, Belgium) expressing human S1PR5, S1PR1, S1PR3 or S1PR4 receptors, aequorin, and GTP binding protein Gq/i5 were cultured using a medium containing nutrient mixture F-12 Ham (Sigma-Aldrich) with 10% FBS, and 100 μg/mL gentamicin and equilibrated at 5% CO2.
(§4) 15.000 cells in 20 μL medium were seeded into Biocoat poly-D-Lysine coated 384 well plates (Becton Dickinson #35-6663) and grown to 95% confluency after 24 h.
(§5) Culture medium was replaced by an assay buffer consisting of HBBS with Ca^2+ and Mg^2+ (Invitrogen #14025-050), 20 mmol/L Hepes (Sigma-Aldrich #H-3375), 2.5 mmol/L probenecid (Sigma-Aldrich #P-8761, and 0.1% BSA (Sigma-Aldrich #A-7030) pH 7.4. The Calcium 5 no-wash FLIPR assay kit (Molecular Devices #5000625) was performed as described in the kit instructions. Cells were incubated with Calcium 5 dye for 1 h at 37° C., 5% CO2 in the dark. After 45 min adaptation to RT assessment of agonist stimulation of intracellular Ca^2+ release was performed by addition of test compounds at concentrations obtained by serial dilution. Phospho-fingolimod was used as positive control. Antagonists were pre-incubated for 10 min with cells before addition of the agonist (phospho-fingolimod at EC80). Measurements were performed using a fluorometric imaging plate reader FLIPR® tetra (Molecular Devices). Agonist at the human S1P receptors were characterized by deducing EC50 (potency) values from a nonlinear fit to the measured fluorescence raw data after normalization to the reference agonist (phospho-fingolimod) curve.

human S1PR5 receptor = biological target: T2, human S1PR5 receptor (Homo sapiens, UniProt Q9H228); conditions: agonist potency, determined with method 1 (symbols A-D); read-out: S1P5 EC50 range
T2 construct: host or cells: CHO-K1
T2 sequence (Q9H228 whole entry): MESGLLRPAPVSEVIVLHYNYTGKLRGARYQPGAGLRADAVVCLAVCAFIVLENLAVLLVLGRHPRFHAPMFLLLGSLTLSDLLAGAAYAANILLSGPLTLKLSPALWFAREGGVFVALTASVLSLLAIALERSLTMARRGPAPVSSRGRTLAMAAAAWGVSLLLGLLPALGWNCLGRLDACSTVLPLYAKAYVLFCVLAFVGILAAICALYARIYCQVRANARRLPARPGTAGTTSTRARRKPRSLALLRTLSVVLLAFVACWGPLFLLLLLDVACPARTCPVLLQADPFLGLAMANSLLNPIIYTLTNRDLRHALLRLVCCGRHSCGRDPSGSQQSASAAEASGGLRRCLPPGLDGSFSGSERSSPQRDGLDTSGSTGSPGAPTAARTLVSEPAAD
Method: as §1, §2, §3, §4, §5

human S1PR3 receptor = biological target: T3, human S1PR3 receptor (Homo sapiens, UniProt Q99500); conditions: (1): determined with method 1; read-out: S1P3 EC50
T3 construct: host or cells: CHO-K1
T3 sequence (Q99500 whole entry): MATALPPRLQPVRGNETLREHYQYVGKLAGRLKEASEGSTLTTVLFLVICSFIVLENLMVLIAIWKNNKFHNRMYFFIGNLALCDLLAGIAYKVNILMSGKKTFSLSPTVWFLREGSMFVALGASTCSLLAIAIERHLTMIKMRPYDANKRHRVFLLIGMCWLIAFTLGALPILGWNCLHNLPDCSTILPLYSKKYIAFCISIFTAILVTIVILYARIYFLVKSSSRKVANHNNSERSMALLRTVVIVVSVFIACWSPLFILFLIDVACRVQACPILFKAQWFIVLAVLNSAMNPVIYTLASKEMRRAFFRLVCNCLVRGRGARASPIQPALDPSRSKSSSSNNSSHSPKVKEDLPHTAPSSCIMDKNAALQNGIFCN
Method: as §1, §2, §3, §4, §5

T1 sequence (P21453 whole entry): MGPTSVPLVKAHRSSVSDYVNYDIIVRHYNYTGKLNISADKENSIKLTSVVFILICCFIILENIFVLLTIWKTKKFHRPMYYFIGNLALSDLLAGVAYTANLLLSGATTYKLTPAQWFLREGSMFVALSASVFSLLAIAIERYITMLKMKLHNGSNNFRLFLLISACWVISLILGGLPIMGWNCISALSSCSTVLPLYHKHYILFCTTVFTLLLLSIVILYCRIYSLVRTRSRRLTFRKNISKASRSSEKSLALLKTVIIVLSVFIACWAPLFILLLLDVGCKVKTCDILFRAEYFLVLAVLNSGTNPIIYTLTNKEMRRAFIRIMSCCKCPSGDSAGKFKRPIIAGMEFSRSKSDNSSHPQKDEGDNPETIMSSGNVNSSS

| Compound | EC50 (human S1PR1 receptor) | EC50 (human S1PR5 receptor) | EC50 (human S1PR3 receptor) |
| --- | --- | --- | --- |
| CC(CN1CCc2nc(-c3ccc(OCc4ccccc4)cc3F)ccc2C1)C(=O)O (stereo not drawn) [Compound 102, 3-(2-(4-(benzyloxy)-2-fluorophenyl)-7,8-dihydro-1,6-naphthyridin-6(5H)-yl)-2-methylpropanoic acid] | < 1000 nM | 10 to 100 nM | > 1000 nM |
| CC(CN1CCc2nc(-c3ccc(OCc4ccccc4)c(Cl)c3)ccc2C1)C(=O)O (stereo not drawn) [Compound 106, 3-(2-(4-(benzyloxy)-3-chlorophenyl)-7,8-dihydro-1,6-naphthyridin-6(5H)-yl)-2-methylpropanoic acid] | > 1000 nM | 10 to 100 nM | > 1000 nM |
| CCc1cccc(Cl)c1COc1ccc(-c2nc3c(cc2F)CN(CCC(=O)O)CC3)cc1 [Compound 196, 3-(2-(4-((2-chloro-6-ethylbenzyl)oxy)phenyl)-3-fluoro-7,8-dihydro-1,6-naphthyridin-6(5H)-yl)propanoic acid] | > 1000 nM | 10 to 100 nM | > 1000 nM |
| CC(CC(=O)O)N1Cc2ccc(-c3ccc(OCc4c(Cl)cccc4Cl)cc3)nc2C1 (stereo not drawn) [Compound 201, 3-(2-(4-((2,6-dichlorobenzyl)oxy)phenyl)-5H-pyrrolo[3,4-b]pyridin-6(7H)-yl)butanoic acid] | > 1000 nM | 1000 to 10000 nM | > 1000 nM |
| O=C(O)CCN1Cc2cnc(-c3ccc(OCc4ccccc4)cc3)nc2C1 [Compound 100, 3-(2-(4-(benzyloxy)phenyl)-5H-pyrrolo[3,4-d]pyrimidin-6(7H)-yl)propanoic acid] | > 1000 nM | 1000 to 10000 nM | > 1000 nM |
| CC(C)Oc1ccc(-c2ncc3c(n2)CCN(CCCC(=O)O)C3)cc1 [Compound 46, 4-(2-(4-isopropoxyphenyl)-7,8-dihydropyrido[4,3-d]pyrimidin-6(5H)-yl)butanoic acid] | > 1000 nM | 1000 to 10000 nM | > 1000 nM |
| Cc1ccc(C(F)(F)F)c(COc2ccc(-c3ncc4c(n3)CCN(CCC(=O)O)C4)cc2)c1 [Compound 91, 3-(2-(4-((5-methyl-2-(trifluoromethyl)benzyl)oxy)phenyl)-7,8-dihydropyrido[4,3-d]pyrimidin-6(5H)-yl)propanoic acid] | > 1000 nM | 100 to 1000 nM | > 1000 nM |
| CC(CC(=O)O)N1CCc2nc(-c3ccc(OCc4ccc(F)c(F)c4)cc3)ncc2C1 (stereo not drawn) [Compound 42, 3-(2-(4-((3,4-difluorobenzyl)oxy)phenyl)-7,8-dihydropyrido[4,3-d]pyrimidin-6(5H)-yl)butanoic acid] | > 1000 nM | < 10 nM | > 1000 nM |
| CC(CC(=O)O)N1CCc2nc(-c3ccc(OCc4cccc(Cl)c4)cc3)ncc2C1 (stereo not drawn) [Compound 43, 3-(2-(4-((3-chlorobenzyl)oxy)phenyl)-7,8-dihydropyrido[4,3-d]pyrimidin-6(5H)-yl)butanoic acid] | > 1000 nM | 100 to 1000 nM | > 1000 nM |
| O=C(O)CCN1CCc2nc(-c3ccc(OCc4cccc(F)c4F)cc3)c(F)cc2C1 [Compound 197] | < 1000 nM | < 10 nM | > 1000 nM |
| O=C(O)CCN1CCc2ncc(-c3ccc(OCc4ccc(Cl)cc4)cc3)nc2C1 [Compound 223, 3-(3-(4-((4-chlorobenzyl)oxy)phenyl)-7,8-dihydropyrido[3,4-b]pyrazin-6(5H)-yl)propanoic acid] | > 1000 nM | 1000 to 10000 nM | > 1000 nM |
| CC(CC(=O)O)CN1CCc2nc(-c3ccc(OCc4ccccc4)cc3)ncc2C1 (stereo not drawn) [Compound 21, 4-(2-(4-(benzyloxy)phenyl)-7,8-dihydropyrido[4,3-d]pyrimidin-6(5H)-yl)-3-methylbutanoic acid] | > 1000 nM | 10 to 100 nM | > 1000 nM |
| O=C(O)CCCN1CCc2nc(-c3ccc(OCc4ccccc4)cc3)ccc2C1 [Compound 115, 4-(2-(4-(benzyloxy)phenyl)-7,8-dihydro-1,6-naphthyridin-6(5H)-yl)butanoic acid] | > 1000 nM | < 10 nM | > 1000 nM |
| O=C(O)CCN1CCc2nc(-c3ccc(OCc4cccc(OC(F)F)c4)cc3)ncc2C1 [Compound 92, 3-(2-(4-((3-(difluoromethoxy)benzyl)oxy)phenyl)-7,8-dihydropyrido[4,3-d]pyrimidin-6(5H)-yl)propanoic acid] | > 1000 nM | 10 to 100 nM | > 1000 nM |
| CC(CN1CCc2nc(-c3ccc(OCc4cccc(F)c4F)cc3)ncc2C1)C(=O)O (stereo not drawn) [Compound 16, 3-(2-(4-((2,3-difluorobenzyl)oxy)phenyl)-7,8-dihydropyrido[4,3-d]pyrimidin-6(5H)-yl)-2-methylpropanoic acid] | < 1000 nM | < 10 nM | > 1000 nM |
| O=C(O)CCN1CCc2nc(-c3ccc(OCc4cccc(C(F)(F)F)c4)cc3)c(F)cc2C1 [Compound 194, 3-(2-(4-((3-trifluoromethylbenzyl)oxy)phenyl)-3-fluoro-7,8-dihydro-1,6-naphthyridin-6(5H)-yl)propanoic acid] | > 1000 nM | < 10 nM | > 1000 nM |
| CC(CN1CCc2nc(-c3ccc(OCc4ccc(F)c(F)c4)cc3)ncc2C1)C(=O)O (stereo not drawn) [Compound 11, 3-(2-(4-((3,4-difluorobenzyl)oxy)phenyl)-7,8-dihydropyrido[4,3-d]pyrimidin-6(5H)-yl)-2-methylpropanoic acid] | > 1000 nM | < 10 nM | > 1000 nM |
| CSc1ccc(COc2ccc(-c3ncc4c(n3)CCN(CCC(=O)O)C4)cc2)cc1 [Compound 80, 3-(2-(4-((4-(methylthio)benzyl)oxy)phenyl)-7,8-dihydropyrido[4,3-d]pyrimidin-6(5H)-yl)propanoic acid] | > 1000 nM | < 10 nM | > 1000 nM |
| Cc1cc(COc2ccc(-c3ncc4c(n3)CCN(CCC(=O)O)C4)cc2)cc(OC(F)(F)F)c1 [Compound 95, 3-(2-(4-((3-methyl-5-(trifluoromethoxy)benzyl)oxy)phenyl)-7,8-dihydropyrido[4,3-d]pyrimidin-6(5H)-yl)propanoic acid] | < 1000 nM | < 10 nM | > 1000 nM |
| O=C(O)CCN1CCc2ncc(-c3ccc(OCc4ccccc4)cc3)nc2C1 [Compound 221, 3-(3-(4-(benzyloxy)phenyl)-7,8-dihydropyrido[3,4-b]pyrazin-6(5H)-yl)propanoic acid] | > 1000 nM | 1000 to 10000 nM | > 1000 nM |
| O=C(O)CCCN1CCc2nc(-c3ccc(OCc4ccccc4)cc3)ncc2C1 [Compound 37, 4-(2-(4-(benzyloxy)phenyl)-7,8-dihydro-dihydropyrido[4,3-d]pyrimidin-6(5H)-yl)butanoic acid] | > 1000 nM | 10 to 100 nM | > 1000 nM |
| Cc1c(COc2ccc(-c3ncc4c(n3)CCN(CCC(=O)O)C4)cc2)cccc1C(F)(F)F [Compound 94, 3-(2-(4-((2-methyl-3-(trifluoromethyl)benzyl)oxy)phenyl)-7,8-dihydropyrido[4,3-d]pyrimidin-6(5H)-yl)propanoic acid] | < 1000 nM | < 10 nM | > 1000 nM |
| O=C(O)CCN1Cc2ccc(-c3cccc(OCc4ccccc4)c3)nc2C1 [Compound 204, 3-(2-(3-(benzyloxy)phenyl)-5H-pyrrolo[3,4-b]pyridin-6(7H)-yl)propanoic acid] | > 1000 nM | 1000 to 10000 nM | > 1000 nM |
